Measurements published in PubChem BioAssay (NCI).
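Compound exposure: 48 hours, 5 concentrations, 96-well plates. The concentration for full growth arrest is given as TGI.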

Tests used:
Assay in all cases: DTP human tumour cell line panel, 48 h
[1] = test system: DU-145 prostate
[2] = test system: HCC-2998 colon
[3] = test system: UACC-257 melanoma
[4] = test system: K-562 leukemia
[5] = test system: SNB-78 CNS
[6] = test system: ACHN renal
[7] = test system: MDA-MB-435
[8] = test system: LXFL 529 NSCLC
[9] = test system: HCT-116 colon
[10] = test system: PC-3 prostate
[11] = test system: HOP-92 NSCLC
[12] = test system: DMS 273 small cell lung
[13] = test system: RXF 393 renal
[14] = test system: A498 renal
[15] = test system: SR leukemia
[16] = test system: MDA-MB-231 breast
[17] = test system: HS 578T breast
[18] = test system: EKVX NSCLC
[19] = test system: RXF-631 renal
[20] = test system: NCI-H226 lung
[21] = test system: SF-539 CNS
[22] = test system: HT29 colon
[23] = test system: SW-620 colon
[24] = test system: IGROV1 ovarian
[25] = test system: SK-MEL-2 melanoma
[26] = test system: OVCAR-4 ovarian
[27] = test system: NCI-H460 lung
[28] = test system: M19-MEL melanoma
[29] = test system: HOP-62 NSCLC
[30] = test system: SK-MEL-5 melanoma
[31] = test system: BT-549 breast
[32] = test system: HL-60(TB) leukemia
[33] = test system: SK-OV-3 ovarian
[34] = test system: SN12C renal
[35] = test system: MALME-3M melanoma
[36] = test system: MDA-N
[37] = test system: OVCAR-8 ovarian
[38] = test system: SK-MEL-28 melanoma
[39] = test system: SF-295 CNS
[40] = test system: OVCAR-3 ovarian
[41] = test system: COLO 205 colon
[42] = test system: LOX IMVI melanoma
[43] = test system: OVCAR-5 ovarian
[44] = test system: RPMI-8226 leukemia
[45] = test system: UO-31 renal
[46] = test system: MCF7 breast
[47] = test system: U251 CNS
[48] = test system: SNB-19 CNS
[49] = test system: KM20L2 colon
[50] = test system: A549 NSCLC
[51] = test system: HCT-15 colon
[52] = test system: CAKI-1 renal
[53] = test system: SF-268 CNS
[54] = test system: UACC-62 melanoma
[55] = test system: MOLT-4 leukemia
[56] = test system: DLD-1 colon
[57] = test system: 786-0 renal
[58] = test system: KM12 colon
[59] = test system: NCI-H522 lung
[60] = test system: CCRF-CEM leukemia
[61] = test system: HOP-18 NSCLC
[62] = test system: DMS 114 small cell lung
[63] = test system: T-47D breast
[64] = test system: NCI-H23 lung
[65] = test system: TK-10 renal
[66] = test system: SNB-75 CNS
[67] = test system: XF 498 CNS
[68] = test system: M14 melanoma

## COc1ccccc1NC(=O)C1=C(C)NC(C)=C(C(=O)Nc2ccccc2OC)C1c1ccco1
[1]
  TGI: > 100 µM
[2]
  TGI: 40.7 µM
[3]
  TGI: 43.4 µM
[4]
  TGI: > 63.5 µM
[5]
  TGI: > 100 µM
[6]
  TGI: > 100 µM
[7]
  TGI: 19.8 µM
[8]
  TGI: > 100 µM
[9]
  TGI: 37.4 µM
[10]
  TGI: > 100 µM
[11]
  TGI: 24.2 µM
[12]
  TGI: > 100 µM
[13]
  TGI: 10.6 µM
[14]
  TGI: 38.4 µM
[15]
  TGI: 15.3 µM
[16]
  TGI: > 100 µM
[17]
  TGI: 9 µM
[18]
  TGI: > 83.7 µM
[19]
  TGI: > 92.6 µM
[20]
  TGI: 33.1 µM
[21]
  TGI: 20.7 µM
[22]
  TGI: 14.7 µM
[23]
  TGI: > 100 µM
[24]
  TGI: > 100 µM
[25]
  TGI: 31.4 µM
[26]
  TGI: 88.2 µM
[27]
  TGI: > 43.9 µM
[28]
  TGI: > 100 µM
[29]
  TGI: 74.6 µM
[30]
  TGI: 15.4 µM
[31]
  TGI: > 100 µM
[32]
  TGI: 8.51 µM
[33]
  TGI: > 76.3 µM
[34]
  TGI: 89.9 µM
[35]
  TGI: > 100 µM
[36]
  TGI: > 100 µM
[37]
  TGI: > 100 µM
[38]
  TGI: > 92 µM
[39]
  TGI: > 44.2 µM
[40]
  TGI: 9.02 µM
[41]
  TGI: 23 µM
[42]
  TGI: > 100 µM
[43]
  TGI: > 100 µM
[44]
  TGI: 76.1 µM
[45]
  TGI: > 83.5 µM
[46]
  TGI: > 100 µM
[47]
  TGI: 47 µM
[48]
  TGI: 67.6 µM
[49]
  TGI: 13 µM
[50]
  TGI: > 100 µM
[51]
  TGI: > 100 µM
[52]
  TGI: > 24.1 µM
[53]
  TGI: > 97.3 µM
[54]
  TGI: 22.9 µM
[55]
  TGI: 52.7 µM
[56]
  TGI: > 100 µM
[57]
  TGI: > 77 µM
[58]
  TGI: > 38.4 µM
[59]
  TGI: 8.6 µM
[60]
  TGI: 59.8 µM
[61]
  TGI: 73.9 µM
[62]
  TGI: 7.53 µM
[63]
  TGI: > 100 µM
[64]
  TGI: 32.4 µM
[65]
  TGI: > 79.7 µM
[66]
  TGI: 29.7 µM
[67]
  TGI: > 100 µM
[68]
  TGI: 31.9 µM

## CCCc1cc(OC(=O)c2c(O)cc(OC)cc2CCC)cc(O)c1C(=O)O
[2]
  TGI: 66.2 µM
[3]
  TGI: 56.2 µM
[4]
  TGI: > 100 µM
[5]
  TGI: 64.1 µM
[6]
  TGI: 80.2 µM
[8]
  TGI: 62.9 µM
[9]
  TGI: 32.2 µM
[11]
  TGI: 39 µM
[12]
  TGI: 95.7 µM
[13]
  TGI: 53.2 µM
[14]
  TGI: 98.8 µM
[18]
  TGI: 86.8 µM
[19]
  TGI: 63.8 µM
[21]
  TGI: 34.7 µM
[22]
  TGI: > 100 µM
[23]
  TGI: > 100 µM
[24]
  TGI: > 100 µM
[25]
  TGI: 47.4 µM
[27]
  TGI: 76.6 µM
[28]
  TGI: > 100 µM
[29]
  TGI: 35.6 µM
[32]
  TGI: 52.7 µM
[33]
  TGI: 68.4 µM
[35]
  TGI: 42.3 µM
[37]
  TGI: > 100 µM
[38]
  TGI: 70.6 µM
[40]
  TGI: 61.2 µM
[41]
  TGI: 79.2 µM
[42]
  TGI: 61.7 µM
[43]
  TGI: > 100 µM
[44]
  TGI: 60.7 µM
[45]
  TGI: 35.9 µM
[47]
  TGI: 68.4 µM
[48]
  TGI: > 100 µM
[49]
  TGI: > 100 µM
[50]
  TGI: > 100 µM
[54]
  TGI: 78.1 µM
[55]
  TGI: 84.2 µM
[56]
  TGI: > 100 µM
[57]
  TGI: > 100 µM
[58]
  TGI: > 100 µM
[59]
  TGI: 43.9 µM
[60]
  TGI: 95.4 µM
[62]
  TGI: 56 µM
[64]
  TGI: 42.8 µM
[65]
  TGI: > 100 µM
[66]
  TGI: 73.4 µM
[67]
  TGI: 74.4 µM
[68]
  TGI: 73.7 µM

## CCOC(=O)CCC(NC(=O)c1ccc(NC(OC)c2nc3cc(C(F)(F)F)ccc3nc2-c2ccccc2)cc1)C(=O)OCC (centres undefined)
[2]
  TGI: 30 µM
[3]
  TGI: 32.2 µM
[4]
  TGI: > 26.6 µM
[5]
  TGI: 37.3 µM
[6]
  TGI: 30.2 µM
[8]
  TGI: 20.3 µM
[9]
  TGI: 9.35 µM
[11]
  TGI: 30.3 µM
[12]
  TGI: 21 µM
[13]
  TGI: 27.2 µM
[14]
  TGI: 34.5 µM
[15]
  TGI: > 100 µM
[18]
  TGI: 33.6 µM
[19]
  TGI: 29.2 µM
[20]
  TGI: 35 µM
[21]
  TGI: 26.1 µM
[22]
  TGI: 22.1 µM
[23]
  TGI: 20.7 µM
[24]
  TGI: 33.3 µM
[25]
  TGI: 33.1 µM
[26]
  TGI: 55.1 µM
[27]
  TGI: 26.2 µM
[28]
  TGI: 29.2 µM
[29]
  TGI: 31.2 µM
[30]
  TGI: 30 µM
[33]
  TGI: 34.9 µM
[34]
  TGI: 28.2 µM
[35]
  TGI: 31.3 µM
[37]
  TGI: 29.6 µM
[38]
  TGI: 31.6 µM
[39]
  TGI: 31.2 µM
[40]
  TGI: 35.8 µM
[41]
  TGI: 35.6 µM
[42]
  TGI: 23.4 µM
[43]
  TGI: 31.5 µM
[44]
  TGI: > 74.1 µM
[45]
  TGI: 26.8 µM
[47]
  TGI: 29.8 µM
[48]
  TGI: 27.5 µM
[49]
  TGI: 27.2 µM
[50]
  TGI: 39.4 µM
[51]
  TGI: 34 µM
[52]
  TGI: 31.1 µM
[53]
  TGI: 30.9 µM
[54]
  TGI: 34.2 µM
[55]
  TGI: > 24.1 µM
[56]
  TGI: 24.1 µM
[57]
  TGI: 26.6 µM
[58]
  TGI: 19.1 µM
[59]
  TGI: 25.6 µM
[60]
  TGI: > 21.7 µM
[61]
  TGI: 44.5 µM
[62]
  TGI: 30.7 µM
[64]
  TGI: 31.5 µM
[65]
  TGI: 38.4 µM
[66]
  TGI: 36.5 µM
[68]
  TGI: 29 µM
